Measured values: PubChem BioAssay AID1963424 (Molecular Pharmacology Branch, DTP, NCI, 2024)

Test system: 327498-153-R-J2-PDC complex spheroid growth, % test/control
Test: Anticancer human tumor 327498-153-R-J2-PDC patient-derived uterine carcinosarcoma cell line growth inhibition [Asc]
Conditions: for IC50: curve of first compound; for viability, T/C: stronger effect = lower value
How it was run: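 Complex solid-tumor spheroids incorporating human endothelial and mesenchymal stem cells received single agents or combinations over half-log dilution ranges anchored to clinical Cmax.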

[1] = second compound 0.01 µM, first compound 0.0316 µM
[2] = second compound 0.01 µM, first compound 0.1 µM
[3] = second compound 0.01 µM, first compound 0.316 µM
[4] = second compound 0.01 µM, first compound 1 µM
[5] = second compound 0.0316 µM, first compound 0.0316 µM
[6] = second compound 0.0316 µM, first compound 0.1 µM
[7] = second compound 0.0316 µM, first compound 0.316 µM
[8] = second compound 0.0316 µM, first compound 1 µM
[9] = second compound 0.1 µM, first compound 0.0316 µM
[10] = second compound 0.1 µM, first compound 0.1 µM
[11] = second compound 0.1 µM, first compound 0.316 µM
[12] = second compound 0.1 µM, first compound 1 µM
[13] = second compound 0.316 µM, first compound 0.0316 µM
[14] = second compound 0.316 µM, first compound 0.1 µM
[15] = second compound 0.316 µM, first compound 0.316 µM
[16] = second compound 0.316 µM, first compound 1 µM
[17] = second compound 1 µM, first compound 0.0316 µM
[18] = second compound 1 µM, first compound 0.1 µM
[19] = second compound 1 µM, first compound 0.316 µM
[20] = second compound 1 µM, first compound 1 µM
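Further: spheroids exposed to compound for 7 days after 3 days of growth.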
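Wherever viability, T/C is given: 100% = DMSO vehicle control wells.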

C#Cc1c(F)ccc2cc(O)cc(-c3ncc4c(N5CC6CCC(C5)N6)nc(OCC56CCCN5CC(F)C6)nc4c3F)c12 (stereo not given) + CNC(C)C(=O)NC1CN(S(=O)(=O)c2cccc(S(=O)(=O)N3CCC4CCC(C(=O)NC(c5ccccc5)c5ccccc5)N4C(=O)C(NC(=O)C(C)NC)C3)c2)CCC2CCC(C(=O)NC(c3ccccc3)c3ccccc3)N2C1=O
IC50 (second compound 0.01 µM): > 10000 nM | IC50 (second compound 0.0316 µM): > 10000 nM | IC50 (second compound 0.1 µM): > 10000 nM | IC50 (second compound 0.316 µM): > 10000 nM | IC50 (second compound 1 µM): > 10000 nM | viability, T/C [1]: 102% | viability, T/C [2]: 97.8% | viability, T/C [3]: 95.8% | viability, T/C [4]: 88.6% | viability, T/C (second compound 0.01 µM, first compound 3.16 µM): 68.8% | viability, T/C (second compound 0.01 µM, first compound 10 µM): 53% | viability, T/C [5]: 103% | viability, T/C [6]: 97.3% | viability, T/C [7]: 102% | viability, T/C [8]: 77% | viability, T/C (second compound 0.0316 µM, first compound 3.16 µM): 61.9% | viability, T/C (second compound 0.0316 µM, first compound 10 µM): 55.1% | viability, T/C [9]: 103% | viability, T/C [10]: 95.4% | viability, T/C [11]: 97.5% | viability, T/C [12]: 82.8% | viability, T/C (second compound 0.1 µM, first compound 3.16 µM): 69.4% | viability, T/C (second compound 0.1 µM, first compound 10 µM): 61.9% | viability, T/C [13]: 106% | viability, T/C [14]: 104% | viability, T/C [15]: 92.4% | viability, T/C [16]: 82.3% | viability, T/C (second compound 0.316 µM, first compound 3.16 µM): 74.5% | viability, T/C (second compound 0.316 µM, first compound 10 µM): 55.6% | viability, T/C [17]: 96.3% | viability, T/C [18]: 96.1% | viability, T/C [19]: 97% | viability, T/C [20]: 84.9% | viability, T/C (second compound 1 µM, first compound 3.16 µM): 74% | viability, T/C (second compound 1 µM, first compound 10 µM): 67%

O=C(c1ccc(F)c(F)c1Nc1ccc(I)cc1F)N1CC(O)([C@@H]2CCCCN2)C1 + CNC(C)C(=O)NC1CN(S(=O)(=O)c2cccc(S(=O)(=O)N3CCC4CCC(C(=O)NC(c5ccccc5)c5ccccc5)N4C(=O)C(NC(=O)C(C)NC)C3)c2)CCC2CCC(C(=O)NC(c3ccccc3)c3ccccc3)N2C1=O
IC50 (second compound 0.01 µM): 391 nM | IC50 (second compound 0.0316 µM): 377 nM | IC50 (second compound 0.1 µM): 377 nM | IC50 (second compound 0.316 µM): 304 nM | IC50 (second compound 1 µM): 430 nM | viability, T/C (second compound 0.01 µM, first compound 0.00316 µM): 97.4% | viability, T/C (second compound 0.01 µM, first compound 0.01 µM): 91.9% | viability, T/C [1]: 81.7% | viability, T/C [2]: 78.5% | viability, T/C [3]: 55.7% | viability, T/C [4]: 23.5% | viability, T/C (second compound 0.0316 µM, first compound 0.00316 µM): 104% | viability, T/C (second compound 0.0316 µM, first compound 0.01 µM): 98.6% | viability, T/C [5]: 89% | viability, T/C [6]: 76.4% | viability, T/C [7]: 55.7% | viability, T/C [8]: 22.9% | viability, T/C (second compound 0.1 µM, first compound 0.00316 µM): 104% | viability, T/C (second compound 0.1 µM, first compound 0.01 µM): 88% | viability, T/C [9]: 85.8% | viability, T/C [10]: 76.8% | viability, T/C [11]: 56% | viability, T/C [12]: 21.9% | viability, T/C (second compound 0.316 µM, first compound 0.00316 µM): 105% | viability, T/C (second compound 0.316 µM, first compound 0.01 µM): 102% | viability, T/C [13]: 77.7% | viability, T/C [14]: 75.7% | viability, T/C [15]: 48.2% | viability, T/C [16]: 22.6% | viability, T/C (second compound 1 µM, first compound 0.00316 µM): 104% | viability, T/C (second compound 1 µM, first compound 0.01 µM): 92.9% | viability, T/C [17]: 92.3% | viability, T/C [18]: 80.9% | viability, T/C [19]: 62.5% | viability, T/C [20]: 20%
